Experimental data from patent publication EP2316926B1, “Enantioselective production of alpha-hydroxy carbonyl compounds” (priority 2009, dated 2011).
Values joined by “and” are separate entries in the source; they are usually repeats but may differ in a detail not shown here. Identical values can stand only once. Like-named read-outs stand apart in the source and are kept apart here. Blank lines part the entries; values can stand above or below the molecule they belong to.

How the values were obtained:
Type in all cases: biochemical
[1] = target: T1, Gox0644 (Gluconobacter oxydans, UniProt Q5FT75); test: NADPH-dependent α-ketocarbonyl reductase activity assay (rate of decrease of NADPH at 340 nm); settings: for Gox0644 U/mg*: Table 3, 10 mM substrate, 40 mM K-phosphate buffer pH 7.0, 0.05 mM NAD(P)H, 30 °C, U/mg = µmol x min^-1 x mg protein^-1; for Specific Activity (U/mg)*: Table 4, cofactor NADPH, U/mg = µmol/mg·min; for reduction by Gox0644: result in words
Protocol: Reactions were induced by addition of enzyme or substrate. One unit was defined as the amount of enzyme activity catalyzing the conversion of 1 µmol of pyridine nucleotide per min at 30 °C. NMR Analysis of Biotransformation Products: Biotransformations were extracted with equal volumes of CDCl3. and ^13C NMR spectra were recorded on a Bruker Avance 300 DPX spectrometer operating at 300 MHz for ^1H NMR and at 75 MHz for ^13C NMR, respectively.
Reactions were induced by addition of enzyme or substrate. One unit of activity was defined as the amount of enzyme activity catalyzing the conversion of 1 µmol of pyridine nucleotide per min at 30 °C.
The standard reaction mixture (1 ml) for the reduction reactions of substrates contained 10 mM substrate, 40 mM potassium phosphate buffer (K-phosphate buffer) pH 7.0, 0.05 mM NAD(P)H, and the enzyme unless otherwise noted. Reactions were induced by addition of enzyme or substrate. One unit of activity was defined as the amount of enzyme activity catalyzing the conversion of 1 µmol of pyridine nucleotide per min at 30 °C. […] Table 3: Enzymatic activities with α-diketones, α-ketoaldehydes and α-ketoesters

[2] = target: T2, Gox1615 (Gluconobacter oxydans, UniProt Q5FQJ0); test: as above; settings: for Gox1615 U/mg*: Table 3, 10 mM substrate, 40 mM K-phosphate buffer pH 7.0, 0.05 mM NAD(P)H, 30 °C, U/mg = µmol x min^-1 x mg protein^-1; for Specific Activity (U/mg)*: Table 5, cofactor NADPH, U/mg = µmol/mg·min
T2 sequence (Q5FQJ0 1-332): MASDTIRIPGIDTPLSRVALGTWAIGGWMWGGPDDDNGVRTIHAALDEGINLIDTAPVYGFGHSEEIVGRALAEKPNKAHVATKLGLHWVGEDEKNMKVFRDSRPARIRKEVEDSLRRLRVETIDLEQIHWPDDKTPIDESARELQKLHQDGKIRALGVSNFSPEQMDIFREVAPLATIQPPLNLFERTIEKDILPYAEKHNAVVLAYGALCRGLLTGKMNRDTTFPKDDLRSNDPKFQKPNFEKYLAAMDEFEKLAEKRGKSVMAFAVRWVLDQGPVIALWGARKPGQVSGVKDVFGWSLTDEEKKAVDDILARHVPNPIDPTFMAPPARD
Protocol: Measurement of enzyme activity: NADPH-dependent α-ketocarbonyl reductases were assayed by a routine method used for NAD(P)-linked enzymes by recording the rate of decrease of NADPH at 340 nm (ε = 6.22 mM^-1 x cm^-1)) with substrates at 30 °C. The reaction mixture (1 ml) for reduction of α-ketocarbonyl substrates contained 10 mM substrate, 40 mM potassium phosphate buffer pH 7.0, 0.025 mM NAD(P)H and the enzyme. Reactions were induced by addition of enzyme or substrate. One unit was defined as the amount of enzyme activity catalyzing the conversion of 1 µmol of pyridine nucleotide per min at 30 °C. NMR Analysis of Biotransformation Products: Biotransformations were extracted with equal volumes of CDCl3. and ^13C NMR spectra were recorded on a Bruker Avance 300 DPX spectrometer operating at 300 MHz for ^1H NMR and at 75 MHz for ^13C NMR, respectively. Spectra were processed using Bruker TonSpin 1.3 for Windows software and calibrated to the residual solvent peak of CDCl3 (δH = 7.26 / δC = 77.0).
NADPH-dependent α-ketocarbonyl reductases were assayed by a routine method used for NAD(P)-linked enzymes by recording the rate of decrease of NADPH at 340 nm (ε = 6.22 mM^-1.cm^-1) with substrates at 30 °C. The reaction mixture (1 ml) for reduction of α-ketocarbonyl substrates contained 10 mM substrate, 40 mM potassium phosphate buffer pH 7.0, 0.025 mM NADPH, and the enzyme. Reactions were induced by addition of enzyme or substrate. One unit of activity was defined as the amount of enzyme activity catalyzing the conversion of 1 µmol of pyridine nucleotide per min at 30 °C.
Purified NAD(P)-dependent oxidoreductases were assayed at 30 °C by a routine method used for NAD(P)-linked enzymes by recording the rate of decrease of NAD(P)H at 340 nm (ε = 6.22 mM^-1˙cm^-1) with substrates capable of reduction reactions. The standard reaction mixture (1 ml) for the reduction reactions of substrates contained 10 mM substrate, 40 mM potassium phosphate buffer (K-phosphate buffer) pH 7.0, 0.05 mM NAD(P)H, and the enzyme unless otherwise noted. Reactions were induced by addition of enzyme or substrate. One unit of activity was defined as the amount of enzyme activity catalyzing the conversion of 1 µmol of pyridine nucleotide per min at 30 °C. Measurement of the protein content was performed by the method of Bradford (Bradford M.M., Anal. Biochem. 72:248-254 (1976)). Table 3: Enzymatic activities with α-diketones, α-ketoaldehydes and α-ketoesters

[3] = target: T3, Gox1122 (Gluconobacter oxydans, UniProt Q5FRV6); test: Aldehyde dehydrogenase activity and kinetic constants
T3 sequence (Q5FRV6 1-463): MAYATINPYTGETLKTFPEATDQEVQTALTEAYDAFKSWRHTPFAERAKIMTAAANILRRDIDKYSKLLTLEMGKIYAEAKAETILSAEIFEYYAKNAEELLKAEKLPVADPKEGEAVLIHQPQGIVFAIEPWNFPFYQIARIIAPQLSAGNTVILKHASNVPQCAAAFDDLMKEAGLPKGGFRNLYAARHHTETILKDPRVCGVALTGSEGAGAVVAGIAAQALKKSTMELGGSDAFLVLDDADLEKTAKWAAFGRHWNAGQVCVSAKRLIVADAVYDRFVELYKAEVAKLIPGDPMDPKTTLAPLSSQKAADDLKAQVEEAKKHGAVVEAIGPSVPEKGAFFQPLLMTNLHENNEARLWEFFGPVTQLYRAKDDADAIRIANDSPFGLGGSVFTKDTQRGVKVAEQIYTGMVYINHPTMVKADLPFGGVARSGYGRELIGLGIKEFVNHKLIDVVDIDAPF
Protocol: The enzyme is used in a combined enzymatic reaction between the NADPH-dependent reductases (see above) that form α-hydroxy carbonyl compounds.
Determination of pH and temperature optima and enzyme kinetics: The optimum pH for enzyme activities was determined by a modified method of Salusjärvi, T. et al., Appl. Microbiol. Biotechnol. 65:306-314 (2004) using the following buffer system (50 mM final concentration each): sodium acetate pH 4.5 - 6.5, potassium phosphate pH 6.5 - 8.0, Tris-HCl pH 8.0 - 10. Temperature optima for the biocatalysts were determined under standard reaction conditions at temperatures ranging from 20 - 80 °C. The Michaelis constant (Km) for the proteins was determined from purified enzyme by Lineweaver-Burk plots. Assays were performed at optimum pH for each enzyme and at 30 °C using the best substrate and a targeted substrate. The Km for each substrate was calculated using concentrations of 0.0025 to 10 mM, and the Km NAD(P)H and NAD(P) was calculated using concentrations of 0.01 to 0.5 mM
2.9 Kinetic parameters of the keto carbonyl reductases: Kinetic constants were determined from purified enzyme by Lineweaver-Burk plots. The Km and Vmax values for the substrates were calculated using concentrations of 0.025 to 10 mM. […] 8.

[4] = target: T1, Gox0644; test: Acetaldehyde tolerance test
From the text: The products derived from the α-diketone and α-ketoaldehyde substrate reactions were generated according to the cofactor regeneration protocol. This method overcomes the dependence of the enzymes on reduced cofactor by coupling the substrate reactions of Gox0644 and Gox1615, with the cofactor NADP reduction reaction based on the acetaldehyde oxidoreductase Gox1122 using acetaldehyde. […] In both the reactions with phenylglyoxal and 2,3-pentanedione, Gox0644 activity remained similar to the control reaction consisting of a reaction without acetaldehyde (Tab. 9/10). […] In the reaction with 2,3-pentanedione there was a slight decrease of about 20% from the control, however, the activity levels were still very high at 50.2 U/mg. […] Table 9: Gox0644 acetaldehyde tolerance tests with phenylglyoxal

SMILES: NC(=O)c1ccc[n+]([C@@H]2O[C@H](COP(=O)(O)OP(=O)(O)OC[C@H]3O[C@@H](n4cnc5c(N)ncnc54)[C@H](OP(=O)(O)O)[C@@H]3O)[C@@H](O)[C@H]2O)c1 [NADP]
Km ([3]; cofactor NADP, read-out: apparent Km value): 73 µM

SMILES: CC(=O)O [acetic acid]
reverse reduction reaction ([3]; using NADPH, pH range of 4-10): No reverse reduction reaction

SMILES: CC=O [acetaldehyde]
Vmax ([3]; 40 mM KPB at optimal pH and 30 °C): 196 µmol/min x mg
Km ([3]; 40 mM KPB at optimal pH and 30 °C, read-out: Km): 200 µM
apparent Vmax value ([3]; fixed 0.5 mM NADP, acetaldehyde as the varied substrate): 196 U/mg protein
Km ([3]; several concentrations of the aldehyde from 0.0025 to 10 mM, read-out: Km value): 255 µM
Gox0644 activity ([4]; substrate 2,3-pentanedione, 10mM acetaldehyde, control without acetaldehyde 65.7 U/mg): 67.9 U/mg
Gox0644 activity ([4]; substrate 2,3-pentanedione, 30mM acetaldehyde, control without acetaldehyde 65.7 U/mg): 59.5 U/mg
Gox0644 activity ([4]; substrate 2,3-pentanedione, 50mM acetaldehyde, control without acetaldehyde 65.7 U/mg): 50.2 U/mg and 50.1 U/mg
Gox0644 activity ([4]; substrate phenylglyoxal, 10mM acetaldehyde, control without acetaldehyde 38.5 U/mg): 29.6 U/mg
Gox0644 activity ([4]; substrate phenylglyoxal, 30mM acetaldehyde, control without acetaldehyde 38.5 U/mg): 37.1 U/mg
Gox0644 activity ([4]; substrate phenylglyoxal, 50mM acetaldehyde, control without acetaldehyde 38.5 U/mg): 39.3 U/mg
Gox0644 activity ([4]; substrate phenylglyoxal, 100mM acetaldehyde, control without acetaldehyde 38.5 U/mg): 31.2 U/mg
inhibition at 100000 µM ([4]; substrate phenylglyoxal, 100 mM of acetaldehyde, versus control, read-out: decrease in activity): ≤ 20%

SMILES: CCC(=O)C(=O)CC [3,4-hexanedione]
Gox0644 U/mg* [1]: 7.3 U/mg
Gox1615 U/mg* [2]: 2.0 U/mg
Specific Activity (U/mg)* [2]: 2.0 U/mg

SMILES: CC(C)=O [acetone]
reduction by Gox0644 [1]: not reduced

SMILES: O=C(C(=O)c1ccccc1)c1ccccc1 [benzil]
Specific Activity (U/mg)* [1]: 14.0 U/mg

SMILES: O=CC=O [glyoxal]
Specific Activity (U/mg)* [1]: 1.1 U/mg
Specific Activity (U/mg)* [2]: 5 U/mg

Further lines, results first:

Gox0644 U/mg* [1]: 50.1 U/mg
Gox1615 U/mg* [2]: 6.5 U/mg
Specific Activity (U/mg)* [2]: 6.5 U/mg
SMILES: CCCC(=O)C(C)=O [2,3-hexanedione]

Gox0644 U/mg* [1]: 92.8 U/mg
activity ([1]; substrates showing the highest activities): 93 U/mg protein
Gox1615 U/mg* [2]: 1.2 U/mg
Specific Activity (U/mg)* [2]: 1.2 U/mg
SMILES: CCOC(=O)C(C)=O [ethyl pyruvate]

Specific Activity (U/mg)* [1]: 60.0 U/mg
Specific Activity (U/mg)* [2]: 6.0 U/mg
SMILES: CC(=O)C(C)=O [2,3-butanedione]

reduction by Gox0644 [1]: not reduced
SMILES: CC(=O)C(C)O (stereo not shown) [acetoin]

reduction by Gox0644 [1]: not reduced
SMILES: CC(=O)CC(C)=O [acetylacetone]

Gox0644 U/mg* [1]: 63.1 U/mg
Gox1615 U/mg* [2]: 4.7 U/mg
Specific Activity (U/mg)* [2]: 4.7 U/mg
SMILES: CC(=O)C(=O)OCCC(C)C [isoamyl pyruvate]

reduction by Gox0644 [1]: reduced
SMILES: O=C(O)C(=O)[C@@H](O)[C@H](O)C(=O)CO [2,5-diketogluconate]

reduction by Gox0644 [1]: not reduced
SMILES: CCC(=O)C(=O)O [2-oxo butyric acid]
